Patent US20250197387A1, “BCL-XL DEGRADERS AND USES THEREOF” (Kymera Therapeutics, Inc., priority 2021, published 2025)

Key:
Assay type in all cases: cell-based
Caki-2 cells = test: CTG (CellTiter-Glo) cell viability assay, Caki-2; details: Homo sapiens, 72 h, 3 day incubation, read-out: CTG Chempartner - Caki-2 3 day: Average external-IC50
Method in brief: (§1)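 IC50 is from a three-parameter logistic fit of CellTiter-Glo luminescence after 3-day treatment of cells seeded at 10,000 per well. Codes: MOLT-4 A <0.1, B 0.1-1.0, C >1.0-3.0, D >3.0 μM; Caki-2 A <0.1, B 0.1-1.0, C >1.0-10.0, D >10.0 μM.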

MOLT-4 cells = test: CTG (CellTiter-Glo) cell viability assay, MOLT-4; details: Homo sapiens, MOLT-4, 72 h, 3 day incubation, read-out: CTG Cell Viability Assay - MOLT-4 3 day: Average external-IC50
Method in brief: as §1

BCL-XL [1] = biological target: T1, BCL-XL (Homo sapiens, UniProt Q07817); test: BCL-XL degradation assay, western blot in MOLT-4 cells, 16 h; details: western blot, MOLT-4 cells, 16 h; for Dmax: read-out: Bcl-xL WB in MOLT-4 degradation 16 h: Average Dmax %; for DC50: read-out: Bcl-xL WB in MOLT-4 degradation 16 h: Mean external-Abs DC50
T1 construct: endogenous in cells; host or cells: MOLT-4
T1 sequence (Q07817 whole entry): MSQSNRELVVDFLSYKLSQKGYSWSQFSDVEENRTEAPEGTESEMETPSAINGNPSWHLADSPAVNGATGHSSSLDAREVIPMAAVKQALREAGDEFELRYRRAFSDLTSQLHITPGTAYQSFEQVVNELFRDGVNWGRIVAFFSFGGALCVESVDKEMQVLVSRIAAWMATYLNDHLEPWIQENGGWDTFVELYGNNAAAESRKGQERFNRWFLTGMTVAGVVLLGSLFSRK
Method in brief: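 Infrared-imaged western blots quantified BCL-xL (normalised against beta-actin/GAPDH) after 16 hr, 37° C exposure of MOLT-4 cells to 0.02-10 μM compound; results given as DC50 and Dmax % bins.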

BCL-XL [2] = biological target: T1, BCL-XL; test: Bcl-xL ELISA degradation in MOLT-4 cells, 6 h; details: for DC50: read-out: Bcl-xL ELISA in MOLT-4 degradation 6 h: Mean external-Abs DC50
Method: The letter codes for BCL-XL DC50 include: A (<0.01 μM); B (0.01-0.1 μM); C (>[…]); D (>0.5-1.0 μM); and E (>1.0 μM). The letter codes for Dmax % include A (>75%); B (50 to 75%); C (<50%).

Row | Compound | IC50 (Caki-2 cells) [nM] | IC50 (MOLT-4 cells) [nM] | Dmax (BCL-XL [1]) [%] | DC50 (BCL-XL [1]) [nM] | Dmax (BCL-XL [2]) [%] | DC50 (BCL-XL [2]) [nM]
1 | Cc1ncsc1-c1ccc([C@H](C)NC(=O)[C@@H]2C[C@@H](O)CN2C(=O)[C@@H](NC(=O)CCCCCCC(=O)N2CCN(C[C@]3(C)CCC(c4ccc(Cl)cc4)=C(CN4CCN(c5ccc(C(=O)NS(=O)(=O)c6ccc(N[C@H](CCN7CCOCC7)CSc7ccccc7)c(S(=O)(=O)C(F)(F)F)c6)cc5)CC4)C3)CC2)C(C)(C)C)cc1 [I-397] | 100 to 1000 | < 100 | > 75 | < 10 | 50 to 75 | 10 to 100
2 | Cc1ncsc1-c1ccc(CNC(=O)[C@@H]2C[C@@H](O)CN2C(=O)[C@@H](NC(=O)C2(F)CC2)C(C)(C)C)c(OCCCCCS(=O)(=O)NC(=O)c2nc(N3CCc4cccc(C(=O)Nc5nc6ccccc6s5)c4C3)ccc2-c2cnn(CC34CC5CC(CC(C5)C3)C4)c2C)c1 [I-121] | 100 to 1000 | < 100 | > 75 | < 10 | > 75 | 10 to 100
3 | Cc1ncsc1-c1ccc(CNC(=O)[C@@H]2C[C@@H](O)CC2C(=O)[C@@H](NC(=O)C2(F)CC2)C(C)(C)C)c(OCCCCCCNC(=O)c2nc(N3CCc4cccc(C(=O)Nc5nc6ccccc6s5)c4C3)ccc2-c2cnn(CC3CCCCC3)c2C)c1 (stereo partly drawn) [I-158] | > 10000 | 1000 to 3000 | 50 to 75 | 100 to 500 | < 50 | > 1000
4 | C#Cc1ccc(CNC(=O)[C@@H]2C[C@@H](O)CN2C(=O)[C@@H](NC(=O)CCCS(=O)(=O)NC(=O)c2nc(N(C)c3cc(C)c(Nc4nc5ccccc5s4)nn3)ccc2-c2cnn(CC3CCCCC3)c2C)C(C)(C)C)cc1 [I-340] | > 10000 | 100 to 1000 | > 75 | 100 to 500 | 50 to 75 | 10 to 100
5 | Cc1ncsc1-c1ccc(CNC(=O)[C@@H]2C[C@@H](O)CN2C(=O)[C@@H](NC(=O)C2(F)CC2)C(C)(C)C)c(OCCCCCS(=O)(=O)NC(=O)c2nc(N3CCc4cccc(C(=O)Nc5nc6cccnc6s5)c4C3)ccc2-c2cnn(CC3CCCCC3)c2C)c1 [I-187] | > 10000 | 100 to 1000 | > 75 | 10 to 100 | 50 to 75 | 10 to 100
6 | C#Cc1ccc([C@H](C)NC(=O)[C@@H]2C[C@@H](O)CN2C(=O)[C@@H](NC(=O)CCCCCC(=O)N2CCN(CC[C@H](CSc3ccccc3)Nc3ccc(S(=O)(=O)NC(=O)c4ccc(N5CCN(CC6=C(c7ccc(Cl)cc7)CCC(C)(C)C6)CC5)cc4)cc3S(=O)(=O)C(F)(F)F)CC2)C(C)(C)C)cc1 [I-388] | > 10000 | < 100 | > 75 | 10 to 100 | 50 to 75 | 100 to 500
7 | Cc1ncsc1-c1ccc([C@H](C)NC(=O)[C@@H]2C[C@@H](O)CN2C(=O)[C@@H](c2cc(OC3CCN(CCCS(=O)(=O)NC(=O)c4nc(N5CCc6cccc(C(=O)Nc7nc8ccccc8s7)c6C5)ccc4-c4cnn(CC5CCCCC5)c4C)CC3)no2)C(C)C)cc1 [I-178] | > 10000 | 100 to 1000 | > 75 | 10 to 100 | 50 to 75 | 10 to 100
